Where two headings read alike, the source gives them in different places.
How the values were obtained:
[1] = test system: BaF3 cells expressing JAK2-V617F/L983F; assay: BaF3 cell proliferation dose-response; type: cell-based; conditions: variant L983F in JAK2-V617F
JAK2 kinase domain E930G = target: T1, JAK2 kinase domain E930G (Mus musculus, UniProt Q62120, E930G); assay: Dose response of purified kinase domain; type: biochemical
T1 construct: made in house; host or cells: Spodoptera frugiperda Sf9 (baculovirus)
Procedure: (§1) Proteins were expressed in Spodoptera frugiperda, Sf9 cells. […] Each point mutants was confirmed by sequence analysis. […] All purification steps were carried out at 4 °C.

JAK2 kinase domain L983F = target: T2, JAK2 kinase domain L983F (Mus musculus, UniProt Q62120, L983F); assay: Dose response of purified kinase domain; type: biochemical
T2 construct: made in house; host or cells: Spodoptera frugiperda Sf9 (baculovirus)
Procedure: as §1

[2] = test system: BaF3 cells expressing ruxolitinib-resistant JAK2-V617F variants; assay: Dose-response analyses with ruxolitinib-resistant variants; type: cell-based; conditions: with or without IL-3
Procedure: Ba/F3 cells expressing mutant BCR-ABL proteins were plated in 96-well plates (0.5–1 × 10^4 cell per well) in RPMI medium containing 10% FCS and lacking IL-3. Kinase inhibitors were included in the media at varying concentrations. After 60 hours, the number of viable cells was assessed using WST-1 reagent (Roche Applied Science, USA), according to the manufacturer’s specifications. Assays were performed in quadruplicate.

[3] = design: method as in PMID 21257798; conditions: at 100 mg/kg; cited from earlier work
[4] = test system: BaF3 cells expressing luciferase and JAK2-V617F; assay: In vivo efficacy, leukemic burden by bioluminescence; conditions: 100 mg/kg twice daily, IP, two weeks
[5] = test system: BaF3 cells expressing luciferase and JAK2-V617F/L983F; assay: as above; conditions: 100 mg/kg twice daily, IP, two weeks
[6] = test system: BaF3 cells expressing JAK2-V617F/Y931C/I1018F; assay: BaF3 cell proliferation dose-response; type: cell-based; conditions: Mus musculus, BaF3, read-out: IC50, cell proliferation
[7] = test system: BaF3 cells expressing JAK2-V617F/Y931C/F1019L; assay: BaF3 cell proliferation dose-response; type: cell-based; conditions: Mus musculus, BaF3, read-out: IC50, cell proliferation
[8] = test system: BaF3 cells expressing JAK2-V617F/Y931C/W1020C; assay: BaF3 cell proliferation dose-response; type: cell-based; conditions: Mus musculus, BaF3, read-out: IC50, cell proliferation
[9] = test system: BaF3 cells expressing JAK2-V617F/Y931C/L1026F; assay: BaF3 cell proliferation dose-response; type: cell-based; conditions: Mus musculus, BaF3, read-out: IC50, cell proliferation
[10] = test system: BaF3 cells expressing JAK2-V617F/Y931C/S1025C; assay: BaF3 cell proliferation dose-response; type: cell-based; conditions: Mus musculus, BaF3, read-out: IC50, cell proliferation
[11] = test system: BaF3 cells expressing JAK2-V617F/Y931C/W1038C; assay: BaF3 cell proliferation dose-response; type: cell-based; conditions: Mus musculus, BaF3, read-out: IC50, cell proliferation
[12] = test system: BaF3 cells expressing JAK2-V617F/Y931C/S1039F; assay: BaF3 cell proliferation dose-response; type: cell-based; conditions: Mus musculus, BaF3, read-out: IC50, cell proliferation
[13] = test system: BaF3 cells expressing JAK2-V617F/Y931C/Y1045W; assay: BaF3 cell proliferation dose-response; type: cell-based; conditions: Mus musculus, BaF3, read-out: IC50, cell proliferation
[14] = test system: BaF3 cells expressing JAK2-V617F/Y931C/Y1045*; assay: BaF3 cell proliferation dose-response; type: cell-based; conditions: Mus musculus, BaF3, read-out: IC50, cell proliferation
[15] = test system: BaF3 cells expressing JAK2-V617F/Y931C/F1061W; assay: BaF3 cell proliferation dose-response; type: cell-based; conditions: Mus musculus, BaF3, read-out: IC50, cell proliferation
[16] = test system: BaF3 cells expressing JAK2-V617F/Y931C/V1075F; assay: BaF3 cell proliferation dose-response; type: cell-based; conditions: Mus musculus, BaF3, read-out: IC50, cell proliferation
[17] = test system: BaF3 cells expressing TEL-JAK2; assay: BaF3 cell proliferation dose-response; type: cell-based; conditions: receptor-free fully activated JAK2 (TEL-JAK2); data not shown
Procedure: (§2) Assays were performed in quadruplicate.

[18] = test system: phospho-STAT5 in JAK1-transduced cells; assay: Phospho-STAT5 inhibition in transduced BaF3 cells; type: cell-based; conditions: Mus musculus
Procedure: as §2

[19] = test system: phospho-STAT5 in JAK3-transduced cells; assay: Phospho-STAT5 inhibition in transduced BaF3 cells; type: cell-based; conditions: Mus musculus
[20] = test system: TEL-JAK1-expressing BaF3 cells; assay: Soft-agar colony assay; type: cell-based
[21] = test system: TEL-JAK3-expressing BaF3 cells; assay: Soft-agar colony assay; type: cell-based
[22] = test system: BaF3 cells expressing JAK2-V617F; assay: Soft-agar colony assay; type: cell-based
[23] = test system: BaF3 cells transduced with randomly mutagenized JAK2-V617F; assay: In vitro drug-resistance screen, random mutagenesis; type: cell-based; conditions: ruxolitinib at 1, 2 and 5 μM; fedratinib at 2-fold above IC50
Procedure: To generate random mutation library of Jak2-V617F, E. coli XL1-red cells were transformed with one μg of JAK2-V617F plasmid DNA. More specifically, 50–100 ng of DNA (more than 100 ng of DNA decreases transformation efficiency) was mixed with 100 μl of competent cells in a pre-chilled polypropylene tube and incubated on ice for 30 min, gently swirling every 5 min. For a good library, four to six tubes of competent cells are used. Cells from each tube were plated on four 10 cm LB-agar plates containing 100-μg/ml ampicillin. Plates were incubated at 37 °C for 18–24 hours. When colonies became visible (18–24 hrs), cells were pooled from each plates and plasmid DNA was isolated using the Qiagen’s midiprep kit. At this stage, the heterogeneity of mutations in the library can be roughly assessed by restriction digestion with a frequent cutter such as Sau3A1 or Taq1 or sequencing.
To select resistant clones of JAK2-V617F, high titer retroviruses were produced as describe. One hundred million native BAF3 cells were transduced with 100 ml of virus supernatants having a viral titer of 0.5–1 × 10^6. […] We observed that the overexpression of EPOR or MPL tend to loose dependence on Jak2 resulting to emergence of false-positives[58]. More specifically, 100 × 10^6 cells were mixed with 100 ml of virus supernatant and 100 ml of RPMI, containing 10% serum and 24 μg/ml of polyberene. […]

[24] = test system: phospho-STAT5 in BaF3 cells expressing JAK2-V617 variant L983F; assay: Immunoblot analysis of phospho-STAT5; type: cell-based
[25] = test system: BaF3 cells expressing JAK2-V617F; conditions: read-out: IC50, cell proliferation
[26] = test system: BaF3 cells expressing JAK2-V617F; assay: cells; conditions: Mus musculus, BaF3, read-out: IC50, cell proliferation, BaF3 JAK2-V617F

T2 sequence (Q62120 849-1124 L983F limits assumed): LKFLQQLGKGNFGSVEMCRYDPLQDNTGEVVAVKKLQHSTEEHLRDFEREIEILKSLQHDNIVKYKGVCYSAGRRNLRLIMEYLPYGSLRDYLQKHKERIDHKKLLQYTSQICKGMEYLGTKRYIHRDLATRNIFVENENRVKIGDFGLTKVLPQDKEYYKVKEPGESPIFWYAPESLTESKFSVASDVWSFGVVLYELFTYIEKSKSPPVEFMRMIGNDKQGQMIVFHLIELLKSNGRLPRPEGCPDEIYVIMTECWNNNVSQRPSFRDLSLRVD
T1 sequence (Q62120 849-1124 E930G limits assumed): as the sequence (Q62120 849-1124 L983F limits assumed) above, with E82G, F135L counted along it

With N#CCNC(=O)c1ccc(-c2ccnc(Nc3ccc(N4CCOCC4)cc3)n2)cc1 [CYT-387] as the compound, how does the “resistance or sensitivity of variant L983F” value [1] read?
Its value is “full sensitivity”.

What about the “resistance or sensitivity of purified kinase domain” value (JAK2 kinase domain E930G) of the same compound?
Its value is “sensitive”.

What about the “resistance or sensitivity of purified kinase domain” value (JAK2 kinase domain L983F) of the same compound?
Its value is “sensitive”.

What about the “resistance of ruxolitinib-resistant variants” value [2] of the same compound?
Its value is “cross-resistance”.

For C[C@]12O[C@H](C[C@]1(O)CO)n1c3ccccc3c3c4c(c5c6ccccc6n2c5c31)CNC4=O [lestaurtinib], which “resistance or sensitivity of variant L983F” value [1] is on record?
Its value is “resistance”.

What about the “resistance of ruxolitinib-resistant variants” value [2] of the same compound?
Its value is “cross-resistance”.

Which Cmax [3] does the source give for N#CC[C@H](C1CCCC1)n1cc(-c2ncnc3[nH]ccc23)cn1 [ruxolitinib] here?
The Cmax was 4.4 µM.

And the “effect on transplanted cells (leukemic burden)” value [4]?
Its value is “eradicated”.

What about the “effect on transplanted cells (leukemic burden)” value [5] of the same compound?
Its value is “ineffective”.

What does the source list for Cc1cc(Nc2nc(N[C@@H](C)c3ncc(F)cn3)ncc2Cl)n[nH]1 [AZD1480]?
resistance or sensitivity of variant L983F [1]: resistance; resistance of ruxolitinib-resistant variants [2]: cross-resistance

With Cc1cnc(Nc2ccc(OCCN3CCCC3)cc2)nc1Nc1cccc(S(=O)(=O)NC(C)(C)C)c1 [fedratinib] as the compound, how does the IC50 [6] read?
The IC50 was 1490 nM.

And the IC50 [7]?
The IC50 was 1030 nM.

And the IC50 [8]?
Its IC50 is 1010 nM.

What about the IC50 [9] of the same compound?
The IC50 was 1690 nM.

What about the IC50 [10] of the same compound?
Its IC50 is 2310 nM.

And the IC50 [11]?
The IC50 was 1580 nM.

What about the IC50 [12] of the same compound?
Its IC50 is 1640 nM.

What about the IC50 [13] of the same compound?
Its IC50 is 2110 nM.

What about the IC50 [14] of the same compound?
Its IC50 is 1680 nM.

And the IC50 [15]?
Its IC50 is 1980 nM.

What about the IC50 [16] of the same compound?
The IC50 was 2250 nM.

And the “increase in hypersensitivity of TEL-JAK2 in comparison to JAK2-V617F” value [17]?
The value was ~ 3 fold.

What about the IC50 [18] of the same compound?
Its IC50 is > 10000 nM.

And the IC50 [19]?
The IC50 was > 5000 nM.

And the “concentration up to which colony growth is supported” value [20]?
Its value is 6 µM.

What about the “concentration up to which colony growth is supported” value [21] of the same compound?
Its value is 4 µM.

And the “concentration above which cells failed to grow” value [22]?
Its value is 3 µM.

And the “emergence of resistant clones” value [23]?
Its value is “did not result in any resistant clones”.

And the “resistance of ruxolitinib-resistant variants” value [2]?
Its value is “complete lack of resistance”.

What about the “phospho-STAT5 inhibition (immunoblot)” value [24] of the same compound?
Its value is “dose-dependent inhibition”.

And the IC50 [25]?
Its IC50 is ~900 nM.

What about the IC50 [26] of the same compound?
Its IC50 is 1070 nM.
